Data taken from PubChem BioAssay (NCI).
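Five concentrations, 48 hours, 96-well plates. At the GI50, growth is halved. TGI marks complete inhibition of growth.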

Legend:
Test in all cases: DTP human tumour cell line panel, 48 h
SF-268 CNS = system: SF-268 CNS
UACC-257 melanoma = system: UACC-257 melanoma
NCI-H460 lung = system: NCI-H460 lung
SK-MEL-2 melanoma = system: SK-MEL-2 melanoma
TK-10 renal = system: TK-10 renal
NCI-H522 lung = system: NCI-H522 lung
A549 NSCLC = system: A549 NSCLC
HT29 colon = system: HT29 colon
SR leukemia = system: SR leukemia
K-562 leukemia = system: K-562 leukemia
SK-OV-3 ovarian = system: SK-OV-3 ovarian
M14 melanoma = system: M14 melanoma
SW-620 colon = system: SW-620 colon
SK-MEL-5 melanoma = system: SK-MEL-5 melanoma
NCI-H226 lung = system: NCI-H226 lung
KM12 colon = system: KM12 colon
SF-295 CNS = system: SF-295 CNS
IGROV1 ovarian = system: IGROV1 ovarian
ACHN renal = system: ACHN renal
SF-539 CNS = system: SF-539 CNS
HCT-116 colon = system: HCT-116 colon
EKVX NSCLC = system: EKVX NSCLC
HOP-62 NSCLC = system: HOP-62 NSCLC
OVCAR-4 ovarian = system: OVCAR-4 ovarian
UACC-62 melanoma = system: UACC-62 melanoma
U251 CNS = system: U251 CNS
SNB-19 CNS = system: SNB-19 CNS
CAKI-1 renal = system: CAKI-1 renal
UO-31 renal = system: UO-31 renal
HCC-2998 colon = system: HCC-2998 colon
RXF 393 renal = system: RXF 393 renal
HL-60(TB) leukemia = system: HL-60(TB) leukemia
HOP-92 NSCLC = system: HOP-92 NSCLC
OVCAR-8 ovarian = system: OVCAR-8 ovarian
OVCAR-3 ovarian = system: OVCAR-3 ovarian
MOLT-4 leukemia = system: MOLT-4 leukemia
LOX IMVI melanoma = system: LOX IMVI melanoma
HCT-15 colon = system: HCT-15 colon
KM20L2 colon = system: KM20L2 colon
CCRF-CEM leukemia = system: CCRF-CEM leukemia
OVCAR-5 ovarian = system: OVCAR-5 ovarian
SNB-78 CNS = system: SNB-78 CNS
XF 498 CNS = system: XF 498 CNS
LXFL 529 NSCLC = system: LXFL 529 NSCLC
SN12C renal = system: SN12C renal
A498 renal = system: A498 renal
NCI-H23 lung = system: NCI-H23 lung
M19-MEL melanoma = system: M19-MEL melanoma
SK-MEL-28 melanoma = system: SK-MEL-28 melanoma
COLO 205 colon = system: COLO 205 colon
DLD-1 colon = system: DLD-1 colon
SNB-75 CNS = system: SNB-75 CNS
MALME-3M melanoma = system: MALME-3M melanoma
DMS 273 small cell lung = system: DMS 273 small cell lung

SMILES: O=C(N/N=C/c1cc(Br)cc(Br)c1[O-])c1ccccc1O.O=C(N/N=C/c1cc(Br)cc(Br)c1[O-])c1ccccc1O.[Cl-].[Fe+3]
- TGI (SF-268 CNS): 33.1 µM
- TGI (UACC-257 melanoma): 29.3 µM
- TGI (NCI-H460 lung): 17.7 µM
- TGI (SK-MEL-2 melanoma): 5.43 µM
- TGI (TK-10 renal): 20 µM
- TGI (NCI-H522 lung): 4.56 µM
- TGI (A549 NSCLC): 36.8 µM
- TGI (HT29 colon): 13.2 µM
- TGI (SR leukemia): 5.68 µM
- GI50 (K-562 leukemia): 2.59 µM
- TGI (K-562 leukemia): 5.63 µM
- TGI (SK-OV-3 ovarian): 7.22 µM
- TGI (M14 melanoma): 9.96 µM
- TGI (SW-620 colon): 14 µM
- TGI (SK-MEL-5 melanoma): 12.3 µM
- TGI (NCI-H226 lung): 4.97 µM
- TGI (KM12 colon): 81.6 µM
- TGI (SF-295 CNS): 5.98 µM
- TGI (IGROV1 ovarian): 30.6 µM
- TGI (ACHN renal): 18.3 µM
- TGI (SF-539 CNS): 5.35 µM
- TGI (HCT-116 colon): 10.2 µM
- TGI (EKVX NSCLC): 27.8 µM
- TGI (HOP-62 NSCLC): 5.48 µM
- TGI (OVCAR-4 ovarian): 8.24 µM
- TGI (UACC-62 melanoma): 7.99 µM
- TGI (U251 CNS): 4.91 µM
- TGI (SNB-19 CNS): 21.3 µM
- TGI (CAKI-1 renal): 18.2 µM
- TGI (UO-31 renal): 20.7 µM
- TGI (HCC-2998 colon): 5.65 µM
- TGI (RXF 393 renal): 6.39 µM
- TGI (HL-60(TB) leukemia): 6.54 µM
- TGI (HOP-92 NSCLC): 6.12 µM
- TGI (OVCAR-8 ovarian): 33.4 µM
- TGI (OVCAR-3 ovarian): 12.8 µM
- TGI (MOLT-4 leukemia): > 100 µM
- TGI (LOX IMVI melanoma): 15.5 µM
- TGI (HCT-15 colon): 3.84 µM
- TGI (KM20L2 colon): 13.9 µM
- GI50 (CCRF-CEM leukemia): 38.6 µM
- TGI (CCRF-CEM leukemia): > 100 µM
- TGI (OVCAR-5 ovarian): 7.61 µM

SMILES: Nc1nc(SCCC/C=C/B(O)O)nc2c1ncn2C1OC(CO)C(O)C1O (stereo not given)
- TGI (SF-268 CNS): > 243 µM
- TGI (UACC-257 melanoma): > 243 µM
- TGI (NCI-H460 lung): > 243 µM
- TGI (SNB-78 CNS): > 243 µM
- TGI (SK-MEL-2 melanoma): > 243 µM
- TGI (TK-10 renal): > 243 µM
- TGI (NCI-H522 lung): > 243 µM
- TGI (A549 NSCLC): > 243 µM
- TGI (HT29 colon): > 243 µM
- TGI (XF 498 CNS): > 243 µM
- TGI (LXFL 529 NSCLC): > 243 µM
- TGI (SR leukemia): > 243 µM
- TGI (SN12C renal): > 243 µM
- TGI (K-562 leukemia): > 243 µM
- TGI (SK-OV-3 ovarian): > 243 µM
- TGI (M14 melanoma): > 243 µM
- TGI (SW-620 colon): > 243 µM
- TGI (SK-MEL-5 melanoma): > 243 µM
- TGI (NCI-H226 lung): > 243 µM
- TGI (KM12 colon): > 243 µM
- TGI (SF-295 CNS): > 243 µM
- TGI (IGROV1 ovarian): > 243 µM
- TGI (ACHN renal): > 243 µM
- TGI (SF-539 CNS): > 243 µM
- TGI (HCT-116 colon): > 243 µM
- TGI (A498 renal): > 243 µM
- TGI (NCI-H23 lung): > 243 µM
- TGI (EKVX NSCLC): > 243 µM
- TGI (HOP-62 NSCLC): > 243 µM
- TGI (M19-MEL melanoma): > 243 µM
- TGI (SK-MEL-28 melanoma): > 243 µM
- TGI (OVCAR-4 ovarian): > 243 µM
- TGI (UACC-62 melanoma): > 243 µM
- TGI (COLO 205 colon): > 243 µM
- TGI (U251 CNS): > 243 µM
- TGI (SNB-19 CNS): > 243 µM
- TGI (DLD-1 colon): > 243 µM
- TGI (SNB-75 CNS): > 243 µM
- TGI (HCC-2998 colon): > 243 µM
- TGI (RXF 393 renal): > 243 µM
- TGI (HL-60(TB) leukemia): > 243 µM
- TGI (HOP-92 NSCLC): > 243 µM
- TGI (MALME-3M melanoma): > 243 µM
- TGI (OVCAR-8 ovarian): > 243 µM
- TGI (DMS 273 small cell lung): > 243 µM
- TGI (OVCAR-3 ovarian): > 243 µM
- TGI (MOLT-4 leukemia): > 243 µM
- TGI (LOX IMVI melanoma): > 243 µM
- TGI (HCT-15 colon): > 243 µM
- TGI (KM20L2 colon): > 243 µM
- TGI (CCRF-CEM leukemia): > 243 µM
- TGI (OVCAR-5 ovarian): > 243 µM
